Data taken from PubChem BioAssay AID1259407 (Chemical Carcinogenesis Research Information System (CCRIS), 2018).
Calls of active or inactive are those of the source. The rule behind the calls is not given here.

Test system: CCRIS mutagenicity, Ames/micronucleus/aberration tests
Assay: CCRIS mutagenicity studies
[1] = End Point: IN VITRO CHROMOSOMAL ABERRATIONS, Test System: CHL CELLS, Metabolic Activation: RAT, LIVER, S-9, SODIUM PHENOBARBITAL AND 5,6-BENZOFLAVONE
[2] = Test System: AMES SALMONELLA TYPHIMURIUM, Strain/Indicator: TA98, Metabolic Activation: NONE, Method: PREINCUBATION
[3] = Test System: AMES SALMONELLA TYPHIMURIUM, Strain/Indicator: TA100, Metabolic Activation: NONE, Method: PREINCUBATION
[4] = Test System: AMES SALMONELLA TYPHIMURIUM, Strain/Indicator: TA1535, Metabolic Activation: NONE, Method: PREINCUBATION
[5] = Test System: AMES SALMONELLA TYPHIMURIUM, Strain/Indicator: TA1537, Metabolic Activation: NONE, Method: PREINCUBATION
[6] = Test System: AMES SALMONELLA TYPHIMURIUM, Strain/Indicator: TA98, Metabolic Activation: HAMSTER, LIVER, S-9, AROCLOR 1254 (30%), Method: PREINCUBATION
[7] = Test System: AMES SALMONELLA TYPHIMURIUM, Strain/Indicator: TA98, Metabolic Activation: RAT, LIVER, S-9, AROCLOR 1254 (30%), Method: PREINCUBATION
[8] = Test System: AMES SALMONELLA TYPHIMURIUM, Strain/Indicator: TA100, Metabolic Activation: HAMSTER, LIVER, S-9, AROCLOR 1254 (30%), Method: PREINCUBATION
[9] = Test System: AMES SALMONELLA TYPHIMURIUM, Strain/Indicator: TA100, Metabolic Activation: RAT, LIVER, S-9, AROCLOR 1254 (30%), Method: PREINCUBATION
[10] = Test System: AMES SALMONELLA TYPHIMURIUM, Strain/Indicator: TA98, Metabolic Activation: NONE, Method: STANDARD PLATE
[11] = Test System: AMES SALMONELLA TYPHIMURIUM, Strain/Indicator: TA100, Metabolic Activation: NONE, Method: STANDARD PLATE

COS(=O)(=O)OC
mutagenic call (End Point: IN VITRO CHROMOSOMAL ABERRATIONS, Test System: CHL CELLS, Metabolic Activation: NONE): active; positive (structural changes)
mutagenic call [1]: active; positive (structural changes)
mutagenic call (End Point: In vitro micronucleus, Test System: Chinese Hamster Ovary (CHO-WBL) cells, Metabolic Activation: None): active; positive (p<0.01)
mutagenic call (Test System: AMES SALMONELLA TYPHIMURIUM, Strain/Indicator: TA98, Metabolic Activation: NONE): active; positive
mutagenic call [2]: active; positive
mutagenic call (Test System: AMES SALMONELLA TYPHIMURIUM, Strain/Indicator: TA98, Metabolic Activation: S-9): active; positive
mutagenic call (Test System: AMES SALMONELLA TYPHIMURIUM, Strain/Indicator: TA100, Metabolic Activation: NONE): active; positive
mutagenic call [3]: active; positive
mutagenic call (Test System: AMES SALMONELLA TYPHIMURIUM, Strain/Indicator: TA100, Metabolic Activation: S-9): active; positive
mutagenic call [4]: active; positive
mutagenic call [5]: active; positive
mutagenic call (Test System: AMES SALMONELLA TYPHIMURIUM, Strain/Indicator: TA1538, Metabolic Activation: NONE, Method: PREINCUBATION): active; positive
mutagenic call (Test System: CHINESE HAMSTER V-79, Strain/Indicator: V-79/6-THIOGUANINE, Metabolic Activation: NONE, Method: FLASK ASSAY): inactive; negative
mutagenic call (Test System: CHO/HGPRT, Strain/Indicator: CHO-K1-BH4, Metabolic Activation: NONE, Method: STANDARD PLATE): active; positive

O=[N+]([O-])c1c(O)c(Cl)cc(Cl)c1Cl
mutagenic call (Test System: AMES SALMONELLA TYPHIMURIUM, Strain/Indicator: TA97, Metabolic Activation: HAMSTER, LIVER, S-9, AROCLOR 1254 (5 OR 10%), Method: PREINCUBATION): inactive; negative
mutagenic call (Test System: AMES SALMONELLA TYPHIMURIUM, Strain/Indicator: TA97, Metabolic Activation: HAMSTER, LIVER, S-9, AROCLOR 1254 (30%), Method: PREINCUBATION): inactive; negative
mutagenic call (Test System: AMES SALMONELLA TYPHIMURIUM, Strain/Indicator: TA97, Metabolic Activation: NONE, Method: PREINCUBATION): inactive; negative
mutagenic call (Test System: AMES SALMONELLA TYPHIMURIUM, Strain/Indicator: TA97, Metabolic Activation: RAT, LIVER, S-9, AROCLOR 1254 (10%), Method: PREINCUBATION): inactive; negative
mutagenic call (Test System: AMES SALMONELLA TYPHIMURIUM, Strain/Indicator: TA97, Metabolic Activation: RAT, LIVER, S-9, AROCLOR 1254 (30%), Method: PREINCUBATION): inactive; negative
mutagenic call (Test System: AMES SALMONELLA TYPHIMURIUM, Strain/Indicator: TA98, Metabolic Activation: HAMSTER, LIVER, S-9, AROCLOR 1254 (10%), Method: PREINCUBATION): inactive; negative
mutagenic call [6]: inactive; negative
mutagenic call [2]: inactive; negative
mutagenic call (Test System: AMES SALMONELLA TYPHIMURIUM, Strain/Indicator: TA98, Metabolic Activation: RAT, LIVER, S-9, AROCLOR 1254 (10%), Method: PREINCUBATION): inactive; negative
mutagenic call [7]: inactive; negative
mutagenic call (Test System: AMES SALMONELLA TYPHIMURIUM, Strain/Indicator: TA100, Metabolic Activation: HAMSTER, LIVER, S-9, AROCLOR 1254 (10%), Method: PREINCUBATION): inactive; negative
mutagenic call [8]: inactive; negative
mutagenic call [3]: inactive; negative
mutagenic call (Test System: AMES SALMONELLA TYPHIMURIUM, Strain/Indicator: TA100, Metabolic Activation: RAT, LIVER, S-9, AROCLOR 1254 (10%), Method: PREINCUBATION): inactive; negative
mutagenic call [9]: inactive; negative
mutagenic call (Test System: AMES SALMONELLA TYPHIMURIUM, Strain/Indicator: TA1535, Metabolic Activation: HAMSTER, LIVER, S-9, AROCLOR 1254 (10%), Method: PREINCUBATION): inactive; negative
mutagenic call (Test System: AMES SALMONELLA TYPHIMURIUM, Strain/Indicator: TA1535, Metabolic Activation: HAMSTER, LIVER, S-9, AROCLOR 1254 (30%), Method: PREINCUBATION): inactive; negative
mutagenic call [4]: inactive; negative
mutagenic call (Test System: AMES SALMONELLA TYPHIMURIUM, Strain/Indicator: TA1535, Metabolic Activation: RAT, LIVER, S-9, AROCLOR 1254 (10%), Method: PREINCUBATION): inactive; negative
mutagenic call (Test System: AMES SALMONELLA TYPHIMURIUM, Strain/Indicator: TA1535, Metabolic Activation: RAT, LIVER, S-9, AROCLOR 1254 (30%), Method: PREINCUBATION): inactive; negative
mutagenic call (Test System: AMES SALMONELLA TYPHIMURIUM, Strain/Indicator: TA1537, Metabolic Activation: HAMSTER, LIVER, S-9, AROCLOR 1254 (30%), Method: PREINCUBATION): inactive; negative
mutagenic call [5]: inactive; negative
mutagenic call (Test System: AMES SALMONELLA TYPHIMURIUM, Strain/Indicator: TA1537, Metabolic Activation: RAT, LIVER, S-9, AROCLOR 1254 (30%), Method: PREINCUBATION): inactive; negative

O=c1c2ccccc2c(=O)c2c1ccc1c3ccc4c(=O)c5c(ccc6c7ccc8c(=O)c9ccccc9c(=O)c8c7[nH]c65)c(=O)c4c3[nH]c12
mutagenic call (Test System: Ames Salmonella typhimurium, Strain/Indicator: TA98, Metabolic Activation: None, Method: Preincubation): active; positive
mutagenic call (Test System: Ames Salmonella typhimurium, Strain/Indicator: TA100, Metabolic Activation: None, Method: Preincubation): inactive; negative
mutagenic call (Test System: Ames Salmonella typhimurium, Strain/Indicator: TA102, Metabolic Activation: None, Method: Preincubation): inactive; negative
mutagenic call (Test System: Ames Salmonella typhimurium, Strain/Indicator: TA1535, Metabolic Activation: None, Method: Preincubation): inactive; negative

[Pt+2].[S-]CCCCl.[S-]CCCCl
mutagenic call (Test System: AMES SALMONELLA TYPHIMURIUM, Strain/Indicator: TA92, Metabolic Activation: NONE, Method: STANDARD PLATE): inactive; negative
mutagenic call [10]: inactive; negative
mutagenic call [11]: active; positive
mutagenic call (Test System: AMES SALMONELLA TYPHIMURIUM, Strain/Indicator: TA2410, Metabolic Activation: NONE, Method: STANDARD PLATE): active; positive

c1ccc(Nc2ccc(Nc3ccccc3)cc2)cc1
mutagenic call (End Point: IN VITRO CHROMOSOMAL ABERRATIONS, Test System: CHINESE HAMSTER LUNG CELLS (CHL), Metabolic Activation: RAT, LIVER, S-9, KC-400): inactive; negative
mutagenic call (End Point: IN VITRO CHROMOSOMAL ABERRATIONS, Test System: CHINESE HAMSTER OVARY CELLS (CHO), Metabolic Activation: NONE): inactive; negative
mutagenic call (End Point: IN VITRO CHROMOSOMAL ABERRATIONS, Test System: CHINESE HAMSTER OVARY CELLS (CHO), Metabolic Activation: RAT, LIVER, S-9, AROCLOR 1254): inactive; negative
mutagenic call [1]: inactive; negative; authors report equivocal results for structural changes at 0.08 and 0.
mutagenic call [6]: active; positive
mutagenic call [2]: inactive; negative
mutagenic call [10]: inactive; negative
mutagenic call [7]: active; positive
mutagenic call (Test System: AMES SALMONELLA TYPHIMURIUM, Strain/Indicator: TA98, Metabolic Activation: S-9, Method: STANDARD PLATE): inactive; negative
mutagenic call [8]: inactive; negative
mutagenic call [3]: inactive; negative
mutagenic call [11]: inactive; negative
mutagenic call [9]: inactive; negative
mutagenic call (Test System: AMES SALMONELLA TYPHIMURIUM, Strain/Indicator: TA100, Metabolic Activation: S-9, Method: STANDARD PLATE): inactive; negative

Cc1ccc2cc3c4c(ccc3c3c2c1C[C@H]3O)[C@@H](O)[C@H](O)C=C4
mutagenic call (Test System: CHINESE HAMSTER V-79, Strain/Indicator: V-79/8-AZAGUANINE, Metabolic Activation: RAT, LIVER, S-9, AROCLOR, Method: STANDARD PLATE): active; positive

O[C@@H]1[C@H]2O[C@H]2c2cc3c(ccc4ccccc43)cc2[C@H]1O
mutagenic call (Test System: CHINESE HAMSTER V-79, Strain/Indicator: V-79/8-AZAGUANINE, Metabolic Activation: NONE, Method: STANDARD PLATE): active; positive
